pIC50: −log10 of the molar value. Active and inactive are the calls of the source. The calls are words filed in the database; no cut-off is given here.
What was measured:
A549 = test: Antiproliferative activity against human A549 cells assessed as inhibition of cell growth incubated for 48 hrs by MTT assay; type: functional, cell-based; details: A549, 48 h
HT-29 = test: Antiproliferative activity against human HT-29 cells assessed as inhibition of cell growth incubated for 48 hrs by MTT assay; type: functional, cell-based; details: HT-29, 48 h
MCF7 [1] = test: Antiproliferative activity against human MCF7 cells assessed as inhibition of cell growth incubated for 48 hrs by MTT assay; type: functional, cell-based; details: MCF7, 48 h
[2] = Cytotoxicity against human L02 cells assessed as inhibition of cell growth incubated for 48 hrs by MTT assay; type: toxicity, cell-based
HeLa = test: Antiproliferative activity against human HeLa cells assessed as inhibition of cell growth incubated for 48 hrs by MTT assay; type: functional, cell-based
MDA-MB-231 = test: Antiproliferative activity against human MDA-MB-231 cells assessed as inhibition of cell growth incubated for 48 hrs by MTT assay; type: functional, cell-based; details: MDA-MB-231, 48 h
Tubulin (Homo sapiens) = Tubulin (Homo sapiens) (UniProt P68371+Q9H4B7+P0DPH7+P68366+Q13509+Q71U36+P04350+Q3ZCM7+P07437+P68363+Q9BQE3+Q6PEY2+Q13885+Q9BVA1+Q9BUF5); test: Stabilization of tubulin in human MCF7 cells assessed as stable and fascicled microtubules at 25 nM incubated for 8 hrs by DAPI staining based immunofluorescence assay; type: cell-based
MCF7 [3] = test: Antitumor activity against human MCF7 cells xenografted in BALB/c mouse assessed as inhibition of tumor growth by measuring decrease in tumor weight at 10 mg/kg, ip administered every 3 days for 21 days; type: functional; details: MCF7, 504 h, time 21 day, read-out: TGI
MCF7 [4] = test: Inhibition of colony formation in human MCF7 cells at 10 nM incubated for 2 weeks in 5% CO2 at 37 degC by crystal violet staining based analysis; type: functional, cell-based

Structure (SMILES)	pIC50 (A549)	pIC50 (HT-29)	pIC50 (MCF7 [1])	IC50 at 48 h [2]	pIC50 (HeLa)	pIC50 (MDA-MB-231)	Activity (Tubulin (Homo sapiens))	inhibition in vivo at 10 mg/kg (MCF7 [3])	inhibition (MCF7 [4])
Nc1cc(-c2ccc(Cl)cc2)n(C(=O)c2ccc3c(c2)OCO3)n1	5.77	< 5.30	6.12	> 10000 nM	5.55	5.41			
COc1ccc(C(=O)n2nc(N)cc2-c2ccc(Cl)cc2)cc1OC	5.75	5.41	5.81	4660 nM	5.54	< 5.30			
COc1ccc(-c2cc(N)nn2C(=O)c2cc(OC)c(OC)c(OC)c2)cc1OC	6.11	5.75	6.77	4100 nM	6.25	5.80			
COc1cccc(-c2cc(N)nn2C(=O)c2ccc(OC)c(OC)c2)c1	5.53	< 5.30	5.92	2610 nM	< 5.30	5.51			
COc1cc(C(=O)n2nc(N)cc2-c2cccc(Cl)c2)cc(OC)c1OC	5.29	6.07	6.96	1640 nM	6.85				
COc1cccc(-c2cc(N)nn2C(=O)c2cc(OC)c(OC)c(OC)c2)c1	6.05	6.80	6.40	5680 nM	5.69	5.89			
COc1cc(C(=O)n2nc(N)cc2-c2cccc(Br)c2)cc(OC)c1OC	5.66	6.55	6.72	> 10000 nM	6.36	6.27			
COc1ccc(-c2cc(N)nn2C(=O)c2cc(OC)c(OC)c(OC)c2)cc1	6.46	6.40	6.51	> 10000 nM	6.19	6.08			
COc1cc(C(=O)n2nc(N)cc2-c2cccc(C)c2)cc(OC)c1OC	6.11	5.97	7.10	2810 nM	6.70	5.90			
COc1cccc(-c2cc(N)nn2C(=O)c2ccc3c(c2)OCO3)c1	< 5.30	< 5.30	< 5.30	> 10000 nM	< 5.30	< 5.30			
COc1cc(C(=O)n2nc(N)cc2-c2cccc(F)c2)cc(OC)c1OC	5.54	6.72	6.92	4170 nM	6.49	6.48			
COc1ccc(C(=O)n2nc(N)cc2-c2ccc(OC)c(OC)c2)cc1OC	< 5.30	< 5.30	< 5.30	> 10000 nM	< 5.30	< 5.30			
CC(=O)O[C@H]1C(=O)[C@@]2(C)[C@H]([C@H](OC(=O)c3ccccc3)[C@]3(O)C[C@H](OC(=O)[C@H](O)[C@@H](NC(=O)c4ccccc4)c4ccccc4)C(C)=C1C3(C)C)[C@]1(OC(C)=O)CO[C@@H]1C[C@@H]2O [PACLITAXEL]		7.15	6.66	1730 nM	7.70	6.72	Active	73.5%	Active
COc1ccc(C(=O)n2nc(N)cc2-c2ccc(C)cc2)cc1OC	5.60	5.73	5.87	5580 nM	5.31	5.51			
COc1cc(C(=O)n2nc(N)cc2-c2ccc(Cl)cc2)cc(OC)c1OC	5.87	5.36	5.56	2730 nM	5.59	5.53			
COc1ccc(-c2cc(N)nn2C(=O)c2ccc3c(c2)OCO3)cc1OC	5.56	5.45	5.92	2090 nM	5.31	5.67			
COc1ccc(/C=C\c2cc(OC)c(OC)c(OC)c2)cc1O [COMBRETASTATIN A4]	6.55	6.42		3200 nM	7.05	6.96			Active
Nc1cc(-c2ccc(F)cc2)n(C(=O)c2ccc3c(c2)OCO3)n1	5.42	< 5.30	5.35	6060 nM	< 5.30	5.71			
Cc1ccc(-c2cc(N)nn2C(=O)c2ccc3c(c2)OCO3)cc1	5.67	5.72	6.92	3900 nM	7.40	6.77			
COc1ccc(C(=O)n2nc(N)cc2-c2ccc(F)cc2)cc1OC	< 5.30	< 5.30	< 5.30	> 10000 nM	< 5.30	< 5.30			
COc1cc(C(=O)n2nc(N)cc2-c2ccc(F)cc2)cc(OC)c1OC	5.60	7.22	6.82	6240 nM	6.89	6.41			
COc1ccc(C(=O)n2nc(N)cc2-c2cccc(Cl)c2)cc1OC	< 5.30	< 5.30	< 5.30	> 10000 nM	< 5.30	< 5.30			
COc1ccc(C(=O)n2nc(N)cc2-c2ccc(Br)cc2)cc1OC	5.57	5.97	6.74	1120 nM	5.81	5.89			
COc1cc(C(=O)n2nc(N)cc2-c2ccc(Br)cc2)cc(OC)c1OC	5.61	5.34	5.68	2680 nM	6.21	5.52			
